Where a name gives a salt, the structure may show the parent alone.

The values below come from patent publication US11896600B2, “Composition and method of using eicosanoyl-5-hydroxytryptamide for treating neurodegenerative disorders” (Vidya Herbs, Inc., priority 2019, dated 2024).

The test system of the assay is scopolamine-induced amnesia in mice. As to the kind of experiment: Elevated plus maze (transfer latency) in scopolamine-induced amnesia mice. The following applies: donepezil hydrochloride 3 mg/kg p.o., 7-day pre-treatment; p<0.001.

Procedure: Groups III-V mice were dosed every 24 h interval with respective drugs for 7 consecutive days. On day 7, amnesia was induced in all the groups except the control group by intraperitoneal injection of scopolamine (1 mg/kg) 30 minutes after the respective treatments. 30 minutes later, elevated plus maze (EPM) was carried out to assess the cognitive function. At the end of experiment, mice were sacrificed; serum and brain homogenates were used for further analysis.
Briefly, the acquisition trail (day 6) was carried out by placing the mouse at the end of an open arm. The time taken by the mouse to enter any of the closed arms was taken as transfer latency. Cutoff time allotted for each mouse was 180 s. Retention trail was carried out 24 h after the first trail (Day 7, 30 min after scopolamine treatment). The transfer latency was determined in a similar manner as mentioned before. Shortened transfer latency was considered as an index of memory improvement.
In this study, EPM was applied as a behavioral model to assess learning and memory.

As for `COc1cc2c(cc1OC)C(=O)C(CC1CCN(Cc3ccccc3)CC1)C2` (stereo not shown) [donepezil, donepezil hydrochloride], the “reduction of latency period (transfer latency) compared to scopolamine control group” value turned out to be 82.45%.
